Measurements: US20090192097A1, “Synergistic Herbal Composition from Bacopa Species for Management of Neurodegenerative Disorders and a Process of Preparation Thereof” (priority 2006, published 2009)

How the values were obtained:
[1] = test system: albino Swiss mice; experiment: Passive avoidance test in mice; format: in vivo, mouse; conditions: compared to the vehicle control; BacoMind 40, 60 and 80 mg/kg p.o. 7 days; piracetam 100 mg/kg i.p.; scopolamine 0.3 mg/kg i.p.
Experimental: (§1) Forty two albino Swiss mice (20-22 g) of either sex obtained from National Toxicology Centre, Pune were used for the study. The animals were acclimatized for a week and maintained under standard laboratory conditions, given free access to feed (Source: Laboratory prepared) and water, ad libitum.
Six albino Swiss mice of either sex were randomly allotted to each group. Group I served as the vehicle control. Group II, III and IV received BacoMind™ orally at the doses of 40, 60 and 80 mg/kg for 7 days. Piracetam was administered to group V (100 mg/kg, i.p, single dose, on 7th day 20 min before first trial) and served as the reference standard control. Group VI was administered with scopolamine (0.3 mg/kg, i.p, single dose, on 7th day 20 min before first trial) and served as the amnesia control. Group VII was administered both with BacoMind™ (60 mg/kg, p.o, for 7 days) and scopolamine (0.3 mg/kg, i.p, single dose, on 7th day 30 min after BacoMind™ treatment). Mice were placed individually on the electric grid and allowed to explore for one minute. A stimulus of 20 V with AC current of 5 mA was given and latency to reach SFZ was recorded for three consecutive times and considered as basal reading. After 1 h of the first trial, each animal was placed on the electric grid again and the latency to reach SFZ and the mistakes (descents) the animal made in 15 min were recorded and considered as parameters for acquisition and retention respectively.

[2] = test system: albino Swiss mice; experiment: Elevated plus maze (EPM) test in mice; format: in vivo, mouse; conditions: scopolamine 0.3 mg/kg i.p. single dose, compared to the vehicle control
Experimental: as §1
Six albino Swiss mice of either sex were randomly allotted to each group. Group I served as the vehicle control. […] Piracetam was administered to group V (100 mg/kg, i.p, single dose on 7th day, 30 min before recording transfer latency) and served as the reference standard control. Group VI was administered with scopolamine (0.3 mg/kg, i.p, single dose on 7th day, 30 min before recording transfer latency) and served as the amnesia control group. […] The mice were placed individually at the end of open arm of the EPM facing away from the center. The time taken by the mouse to move into the enclosed arm was noted as transfer latency (TL). The mice were treated with the test substance/drugs as shown in the study design. […] After determination of the TL, mice were allowed to explore the maze for 2 min and then transferred to their home cages. The TL was again measured after 24 h i.e on […]. The TL was expressed as inflexion ratio.

CN1[C@@H]2C[C@@H](OC(=O)[C@H](CO)c3ccccc3)C[C@H]1[C@@H]1O[C@@H]12 [scopolamine]
latency to reach SFZ [1]: significant increase
inflexion ratio [2]: significant decrease

NC(=O)CN1CCCC1=O [piracetam, Piracetam]
latency to reach SFZ [1]: significantly decreased
number of mistakes in 15 min [1]: significantly decreased
